Patent publication US11541065B2, “Compositions and methods for treating brain injury” (UNM RAINFOREST INNOVATIONS, priority 2018, dated 2023)

Experiments:
PGE2 = PGE2 release from rat neuronal cultures (enzyme immunoassay / ELISA of culture media); assay type: cell-based; settings: rat neurons, L-homocysteine 50 μM four hours, with DL-AP5 200 μM, MK801 10 μM, NVP-AAM077 30 nM, Ro 25-6981 1 μM, PD98059 15 μM, SB203580 5 μM, Bengamide B 500 nM or CAY10404 100 nM
Method: (§1) Neuron cultures were treated with or without L-homocysteine in the presence or absence of pharmacological inhibitors for the time period specified in each experiment. The medium was collected from each experimental plate and centrifuged at 1000 rpm for five minutes to remove cellular debris. Equal amounts (100 μl) of the supernatant from each sample were used to determine the amount of PGE2 using the PGE2 enzyme immunoassay kit according to the manufacturer's instructions. For measurement of cPLA2 activity, the neuronal cells from the above treated conditions were harvested in ice-cold Tris-buffered saline (pH7.4) containing sodium pyrophosphate as phosphatase inhibitor, sonicated three times with five-second bursts and two minutes on ice between intervals. The lysed cell suspensions were centrifuged at 10,000 rpm for 10 minutes and the supernatant removed. Equal amounts of protein from the supernatant (assessed using BCA protein estimation kit) were estimated for activity of cPLA2 using cPLA2 activity assay kit according to the manufacturer's protocol.
For measurement of PGE2 levels and MCP-1 levels released from neurons, culture medium was collected from each experimental plate and centrifuged at 1000 rpm for five minutes to remove cellular debris. Equal volume (100 μl) of the supernatant from each sample was used to determine PGE2 level using the PGE2 ELISA kit according to the manufacturer's instructions.

COX2 = COX2 protein level in rat neuronal cultures (immunoblot); assay type: cell-based; settings: rat neurons, L-homocysteine 50 μM four hours, with MK801 10 μM, NVP-AAM077 30 nM, Ro 25-6981 1 μM, PD98059 15 μM, SB203580 5 μM or Bengamide B 500 nM
Method: (§2) Equal protein from total cell lysates obtained from rat and mice neuronal cultures were resolved in 7.5% SDS-PAGE, and subjected to immunoblotting procedure as described earlier (Poddar and Paul, 2009, J Neurochem 110:1095-1106). Blots were analyzed with antibodies as described in each experiment. All primary antibodies (anti-COX2, anti-B-tubulin) and secondary-horse radish peroxidase conjugated antibody concentrations were used according to recommendations provided by the manufacturer. Signals from immune complexes in the blots were developed using West Pico supersignal chemiluminescence reagents and then captured on X-ray films. Densitometric analysis of the images was performed using the Image J software.
Rat and mice neuronal cultures were washed with PBS (pH 7.4), containing sodium pyrophosphate and sodium vanadate as phosphatase inhibitors, and harvested in SDS sample buffer (Laemmli, 1970, Nature 227:680-685). Equal protein from total cell lysates, estimated using BCA kit, was resolved by SDS-PAGE (7.5%) followed by western blotting on PVDF membranes. Immunoblot analysis was performed by first blocking with 5% non-fat dry milk for 1 h at room temperature followed by incubation with either COX2 immunoblot analysis (Poddar and Paul, 2009, J Neurochem 110:1095-1106) as described in each experiment. All primary antibodies and horseradish peroxidase conjugated secondary antibodies were used according to manufacturer's recommendations. Signals from immune complexes in the blots were developed using West Pico supersignal chemiluminescence reagents and then captured on X-ray films. Densitometric analysis of the images was performed using the NIH Image J software.

[1] = tested on: neuron cultures from WT and GluN2A-KO mice; test: Neuronal cell death by Hoechst DNA staining, WT and GluN2A-KO mouse neuron cultures; assay type: cell-based; settings: PD98059 15 μM
Method: (§3) Neurons were subjected to staining with Hoechst 33342 dye for 15 minutes, washed extensively with PBS, and analyzed using fluorescent microscopy to assess nuclear damage. Imaging was performed with a Zeiss Axiovert 200M fluorescence microscope with attached AxioCam CCD camera using 20× objective lens (Carl Zeiss, Thomwood, N.Y.). To quantitatively assess the percentage of pyknotic nuclei a total of 1000 cells were counted for each set of experiments. Mean±SEM (n=3) were used for statistical comparison using ANOVA (Bonferroni's multiple comparison test). Differences were considered significant when p<0.05.
(§4) […] Glutamate treated cells were then maintained in their original medium for another 17 hours. For some experiments, neurons were treated with L-homocysteine or glutamate in the presence of NVP-AAM077 or PD98059. The neurons were then fixed and stained with Hoechst 33342 dye as previously described (Poddar and Paul, 2009, J Neurochem 110:1095-1106). Percentage of pyknotic nuclei was quantitatively assessed by fluorescent microscopy to determine the extent of neuronal death.

[2] = tested on: rat cortical neuronal cultures; test: Neuronal cell death by Hoechst DNA staining, rat cortical neuron cultures; assay type: cell-based; settings: rat neurons, with NVP-AAM077 30 nM or PD98059 15 μM
Method: as §3, §4

cPLA2 = cPLA2 activity in rat neuronal lysates (enzymatic assay); assay type: cell-based; settings: rat neurons, L-homocysteine 50 μM four hours, with MK801 10 μM, NVP-AAM077 30 nM, Ro 25-6981 1 μM, PD98059 15 μM or SB203580 5 μM
Method: as §1
For measurement of cPLA2 activity and MCP-1 levels in cell lysates, neuronal lysates were prepared by harvesting neurons in ice-cold Tris-buffered saline (pH 7.4) containing phosphatase inhibitor, sonicated three times in five-second bursts and placed on ice (two minutes) between each burst of sonication. The lysed cell suspensions were centrifuged at 10,000 rpm (10 minutes) and the supernatant was collected in another tube. Equal amounts of protein from the supernatant were processed for cPLA2 activity assay according to the manufacturer's protocol. Equal protein from the lysates were also used to estimate MCP-1 levels using an MCP-1 ELISA kit.

ERK MAPK [3] = test: ERK MAPK phosphorylation in rat cortical neuron cultures (immunoblot); assay type: cell-based; settings: rat neurons, glutamate 50 μM, 5, 30 or 60 minutes
From the text: (§5) Primary cortical neuronal cultures were established from embryos obtained from pregnant Sprague Dawley female rats (16-17 day gestation) as previously described (Podder and Paul, 2009, J Neurochem 110:1095-1106; Poddar and Paul, 2013, J Neurochem 124: 558-570). Primary cortical neuronal cultures were also developed from pregnant wildtype or GluN2A-knockout mice (15-16 day gestation) using similar protocols. The cells were maintained in culture for 12-14 days prior to treatment with homocysteine. L-homocysteine (200 mM stock) was prepared by alkali hydrolysis of L-homocysteine thiolactone hydrochloride followed by neutralization with 2N HCL and maintained in 0.02 mM N-Tris(hydroxymethyl)methyl-2-aminoethanesulfonicd acid (TES) buffer pH 7.4 (Poddar et al., 2001, Circulation 103:2717-2723). For receptor stimulation neurons were treated with freshly prepared 50 μM of L-homocysteine in Hank's balanced salt solution (Podder and Paul, 2009, J Neurochem 110:1095-1106; Poddar and Paul, 2013, J Neurochem 124: 558-570) containing 50 μM of glycine (Lipton et al., 1997, Proc Natl Acad Sci USA 94:5923-5928). In a subset of culture plates, pharmacological inhibitors (NVP-AAM007) were added […] prior to homocysteine addition and maintained during homocysteine treatment. Cells were processed for immunoblotting or Hoechst DNA staining.
as §2, with “(Podder” for “(Poddar”, “(anti-pERK, anti-ERK)” for “(anti-COX2, anti-B-tubulin)”
(§6) Embryos obtained from pregnant Sprague Dawley rats (16-17-day gestation) or wild type (WT) and GluN2A KO mice (15-16-day gestation) were used to establish primary cortical neuronal cultures as previously described (Poddar and Paul, 2009, J Neurochem 110:1095-1106; Poddar and Paul, 2013, J Neurochem 124:558-570; Poddar et al., 2017, J Neurochem 142:560-573). Neurons were grown on either (a) 35-mm culture dishes (MatTek Corp., Ashland, Mass.) coated overnight with poly-D-lysine (50 μg/ml) and laminin (10 μg/ml) for Ca^2+ imaging studies, (b) poly-D-lysine-coated 60 mm dishes (Corning BIOCOAT, Corning Inc., Corning, N.Y.) for biochemical studies, or (c) poly-D-lysine-coated 4-well culture slides (Corning BIOCOAT, Corning Inc., Corning, N.Y.) for cell death assay. Neurons were maintained in culture for 12-13 days before experiment. The cells were treated with freshly prepared L-homocysteine (50 μM) in Hank's balanced salt solution containing 50 μM of glycine (Lipton et al., 1997, Proceedings of the National Academy of Sciences of the United States of America 94:5923-5928; Poddar and Paul, 2009, J Neurochem 110:1095-1106; Poddar and Paul, 2013, J Neurochem 124:558-570; Poddar et al., 2017, J Neurochem 142:560-573) for the specified time periods. In a parallel series of experiments, cells were treated with glutamate (50 μM) for the specified time periods. Cells were then processed for live cell imaging, immunoblotting or cell death assay. In some experiments EGTA, DL-AP5, NVP-AAM077, Ro 25-6981 or PD98059 was added 15 minutes prior to L-homocysteine or glutamate treatment.
Rat and mice neuron cultures were harvested in SDS sample buffer (Laemmli, 1970, Nature 227:680-685). […]

ERK MAPK [4] = test: ERK MAPK phosphorylation in WT and GluN2A-KO mouse neuron cultures (immunoblot); assay type: cell-based, mice; settings: both WT and GluN2A-KO mice cultures, glutamate 50 μM
From the text: as §5
as §2, with “(Podder” for “(Poddar”, “(anti-pERK, anti-ERK)” for “(anti-COX2, anti-B-tubulin)”
as §6, with “In some experiments EGTA, DL-AP5, NVP-AAM077, Ro 25-6981 or PD98059 was added 15 minutes prior to L-homocysteine or glutamate treatment.” left out

[Ca^2+]i [5] = Intracellular Ca^2+ by Fura2 imaging, rat neuronal cultures; assay type: cell-based; settings: rat neurons
Method: as §6
[Ca^2+]i in neurons was determined using the fluorescent indicator, Fura2-AM. Briefly, neurons were loaded with Fura2 (10 μM) in phenol red free Hank's balanced salt solution for 30 minutes at 37° C. followed by post-incubation for 20 minutes (Paul, S. and Connor, J. A., 2010, J Neurochem 114:1107-1118). Time lapse live cell imaging was performed following stimulation using a Nikon Ti Eclipse inverted microscope equipped with Tokai Hit stage top incubator maintained at 37° C. and infused with 95:5% air:CO2 mixture. Fields of 5-8 cells were imaged using a 40× oil immersion objective (Nikon). Fluorescence excitations (340 and 380 nm) were provided with Sutter LB-LS/30 Lambda xenon arc lamp and fluorescence emissions (510 nm) were captured using a CCD camera (Teledyne Photometries, Tucson, Ariz.). NIS Elements AR software was used for data acquisition and analysis. Ratiometric data (340/380 nm) from regions of interest were corrected for background and converted into estimates of [Ca^2+]i. as described previously (Paul, S. and Connor, J. A., 2010, J Neurochem 114:1107-1118) using the equation developed earlier (Grynkiewicz et al., 1985, J Biol Chem 260:3440-3450). Maximum and minimum fluorescence ratios were determined from Fura2 loaded cells treated with ionomycin (5 μM) in calcium containing medium (2 mM) or in calcium free media with EGTA (0.5 mM).

[Ca^2+]i [6] = Intracellular Ca^2+ by Fura2 imaging, WT and GluN2A KO mouse neuronal cultures; assay type: cell-based, mice; settings: neurons from both WT and GluN2A-KO mice, glutamate 50 μM
Method: as §6
[Ca^2+]i in neurons was determined using the fluorescent indicator, Fura2-AM. […] Fluorescence excitations (340 and 380 nm) were provided with Sutter LB-LS/30 Lambda xenon arc lamp and fluorescence emissions (510 nm) were captured using a CCD camera (Teledyne Photometries, Tucson, Ariz.). […] Maximum and minimum fluorescence ratios were determined from Fura2 loaded cells treated with ionomycin (5 μM) in calcium containing medium (2 mM) or in calcium free media with EGTA (0.5 mM).

CS(=O)(=O)c1ccc(-c2noc(C(F)(F)F)c2-c2ccccc2)cc1 [CAY10404]
effect on homocysteine-induced PGE2 release (PGE2): significantly reduced

COc1cccc(-c2cc(=O)c3ccccc3o2)c1N [PD98059]
effect on homocysteine-induced increase in COX2 protein level (COX2): significantly reduced
effect on homocysteine-induced neurotoxicity ([1]; neurons from WT mice, L-Hcy 50 μM 18 hours): significantly reduced
effect on glutamate-induced neurotoxicity ([1]; neurons from either WT or GluN2A KO mice, glutamate 50 μM one hour then 17 hours): fails to reduce glutamate-induced neurotoxicity
effect on homocysteine-induced neuronal death ([2]; L-homocysteine 50 μM 18 hours): attenuates homocysteine-induced neurotoxicity
effect on glutamate induced neuronal cell death ([2]; glutamate 50 μM one hour then 17 hours in original medium): remain unaffected
effect on homocysteine-mediated increase in cPLA2 activity (cPLA2): significantly attenuates homocysteine-mediated increase in cPLA2 activity
effect on homocysteine-induced PGE2 release (PGE2): decreases significantly

C[S+]([O-])c1ccc(-c2nc(-c3ccncc3)c(-c3ccc(F)cc3)[nH]2)cc1 (stereo not drawn) [SB203580]
effect on homocysteine-induced increase in COX2 protein level (COX2): significant reduction
effect on homocysteine-mediated increase in cPLA2 activity (cPLA2): significant reduction
effect on homocysteine-induced PGE2 release (PGE2): significant reduction

CCCCCCCCCCCCCC(=O)O[C@H]1CC[C@H](NC(=O)[C@H](OC)[C@H](O)[C@@H](O)[C@H](O)/C=C/C(C)C)C(=O)N(C)C1 [Bengamide B]
effect on homocysteine-induced increase in COX2 protein level (COX2): attenuates homocysteine-induced increase in COX2 protein level
effect on homocysteine-induced PGE2 release (PGE2): significant decrease in PGE2 level

N[C@@H](CCC(=O)O)C(=O)O [glutamate]
ERK MAPK phosphorylation (ERK MAPK [3]): rapid but transient increase in ERK MAPK phosphorylation
ERK MAPK phosphorylation (ERK MAPK [4]): rapid but transient increase in ERK MAPK phosphorylation
increase in [Ca^2+]i ([Ca^2+]i [5]; glutamate 50 μM, within 2.5 minutes): approximately 21 fold
Fura2 fluorescence ratio and [Ca^2+]i ([Ca^2+]i [6]): rapid increase in Fura2 fluorescence ratio and [Ca^2+]i

C[C@]12N[C@H](Cc3ccccc31)c1ccccc12 [MK801]
effect on homocysteine-induced increase in COX2 protein level (COX2): blocks homocysteine induced COX2 protein expression
effect on homocysteine-mediated increase in cPLA2 activity (cPLA2): is blocked
effect on homocysteine-induced PGE2 release (PGE2): significantly reduced

O=C(O)CN(CCOCCOCCN(CC(=O)O)CC(=O)O)CC(=O)O [EGTA]
effect on homocysteine-induced increase in Fura2 fluorescence ratio and [Ca^2+]i ([Ca^2+]i [5]; somata and processes, L-homocysteine 50 μM 60 minutes, with EGTA 2 mM, DL-AP5 200 μM, NVP-AAM077 30 nM or Ro 25-6981 1 μM): are blocked
